In patent US10358683B2, “Compositions and methods for determining whether a subject would benefit from co-receptor inhibitor therapy” (priority 2007, dated 2019):
Where two headings read alike, the source gives them in different places.

Assays:
Clone 11 (R5 >> X4_2) = assay type: cell-based, HIV-1; conditions: PBMCs; Clone 11 envelope in NL4-3 infectious clone, tropism subtype R5 >> X4
Procedure: (§1) First, 35 gp160 envelope genes derived from different patient samples that were originally identified as dual-tropic were cloned into an expression vector as described in Example 1. Tropism of pseudotyped virus was determined by measuring luciferase activity (relative light units, RLU) following infection of U87/CD4+CCR5+ or U87/CD4+CXCR4+ cells as described above. Inhibition of infection by small molecule CCR5-(Merck) and CXCR4-(AMD3100; AnorMED) inhibitors was examined on U87/CD4+CCR5+CXCR4+ cells, U87/CD4+CXCR4+ cells, and U87/CD4+CCR5+ cells. A subset of the envelope genes were also inserted into an NL4-3 infectious clone and evaluated for their ability to infect PBMCs in the presence of the CCR5- or CXCR4-inhibitors.

Clone 22 (R5~X4_4) = assay type: cell-based, HIV-1; conditions: PBMCs; Clone 22 envelope in NL4-3 infectious clone, tropism subtype R5~X4
Procedure: as §1

Clone 25 (R5~X4_2) = assay type: cell-based, HIV-1; conditions: PBMCs; Clone 25 envelope in NL4-3 infectious clone, tropism subtype R5~X4
Procedure: as §1

Clone 26 (R5~X4_1) = assay type: cell-based, HIV-1; conditions: PBMCs; Clone 26 envelope in NL4-3 infectious clone, tropism subtype R5~X4
Procedure: as §1

Clone 28 (R5~X4_3) = assay type: cell-based, HIV-1; conditions: PBMCs; Clone 28 envelope in NL4-3 infectious clone, tropism subtype R5~X4
Procedure: as §1

Clone 31 (X4 >> R5_3) = assay type: cell-based, HIV-1; conditions: PBMCs; Clone 31 envelope in NL4-3 infectious clone, tropism subtype X4 >> R5
Procedure: as §1

Clone 33 (X4 >> R5_2) = assay type: cell-based, HIV-1; conditions: PBMCs; Clone 33 envelope in NL4-3 infectious clone, tropism subtype X4 >> R5
Procedure: as §1

Clone 34 (X4 >> R5_1) = assay type: cell-based, HIV-1; conditions: PBMCs; Clone 34 envelope in NL4-3 infectious clone, tropism subtype X4 >> R5
Procedure: as §1

Clone 4 (R5 >> X4_1) = assay type: cell-based, HIV-1; conditions: PBMCs; Clone 4 envelope in NL4-3 infectious clone, tropism subtype R5 >> X4
Procedure: as §1

JRCSF (R5) = assay type: cell-based, HIV-1; conditions: PBMCs, tropism subtype R5
Procedure: as §1

NL43 (X4) = assay type: cell-based, HIV-1; conditions: PBMCs; NL43, tropism subtype X4
Procedure: as §1

[1] = system: primarily CCR5-tropic viruses; assay type: cell-based, HIV-1; conditions: primarily CCR5-tropic viruses into CCR5- and CXCR4-expressing cells
Procedure: (§2) Susceptibility assays for HIV-1 entry inhibitors were performed using packaging host cells consisting of the human embryonic kidney cell line 293 (Cell Culture Facility, UC San Francisco, SF, Calif.) and target host cells consisting of a human osteosarcoma (HOS) cell line expressing CD4 (HT4) plus CCR5, and CXCR4, or astrocytoma (U-87) cell lines expressing either CD4 and CCR5 or CD4 and CXCR4.
(§3) Drug susceptibility testing was performed using pHIVenv and pHIVluc or pHIVlucΔU3. Pseudotyped HIV particles containing envelope proteins encoded by the subject derived segment were produced by transfecting a packaging host cell (HEK 293) with resistance test vector DNA. […] After infection (˜72 h) the target cells are lysed and luciferase activity is measured. […] The amount of luciferase activity detected in the infected cells is used as a direct measure of “infectivity” (FIGS. 1 and 2). […]
(§4) Drug susceptibility is assessed by comparing the infectivity in the absence of drug to infectivity in the presence of drug. […]
(§5) First, 35 gp160 envelope genes derived from different patient samples that were originally identified as dual-tropic were cloned into an expression vector as described in Example 1. Tropism of pseudotyped virus was determined by measuring luciferase activity (relative light units, RLU) following infection of U87/CD4+CCR5+ or U87/CD4+CXCR4+ cells as described above. […]

[2] = system: primarily CXCR4-tropic viruses; assay: Entry of pseudotyped viruses into U87 cells in presence of co-receptor inhibitors (FIG. 5); assay type: cell-based, HIV-1
Procedure: as §2, §3, §4, §5

Dual_X-tropic viruses = conditions: fully replication competent Dual_X-tropic viruses, PBMCs
Procedure: as §1

dual-tropic viruses = assay: Infection of PBMCs by fully replication competent viruses (FIG. 7, summary); assay type: cell-based, HIV-1
Procedure: as §1

[3] = system: dual-tropic HIV-1 variants; conditions: for suppression of CXCR4-tropic virus: patients, 10 days of therapy
Procedure: First, samples from 26 subjects administered AMD3100 for 10 days were obtained prior to therapy and on day 11 following the 10 days of therapy. Co-receptor tropism of the viral populations from both sets of samples were then determined according to Example 1. […] 37(2):1253-62.

[4] = subjects with mixed populations, following treatment

With c1cc(CN2CCCNCCNCCCNCC2)ccc1CN1CCCNCCNCCCNCC1 [AMD, AMD3100] the “% inhibition” value (Clone 11 (R5 >> X4_2)) was −3%, the “% inhibition” value (Clone 22 (R5~X4_4)) was −12% and the “% inhibition” value (Clone 25 (R5~X4_2)) was 27%. The “% inhibition” value (Clone 26 (R5~X4_1)) was 41%, the “% inhibition” value (Clone 28 (R5~X4_3)) was 19% and the “% inhibition” value (Clone 31 (X4 >> R5_3)) was 98%. For the same compound, the “% inhibition” value (Clone 33 (X4 >> R5_2)) was 99%, the “% inhibition” value (Clone 34 (X4 >> R5_1)) was 99% and the “% inhibition” value (Clone 4 (R5 >> X4_1)) was −1%. The “% inhibition” value (JRCSF (R5)) was 11%, the “% inhibition” value (NL43 (X4)) was 99% and the inhibition of entry [1] was “not inhibited”. The inhibition of entry ([2]; primarily CXCR4-tropic viruses into CCR5- and CXCR4-expressing cells) was “inhibited”, the inhibition of entry ([2]; primarily CXCR4-tropic viruses into CXCR4-expressing cells) was “inhibited” and the inhibition of entry (Dual_X-tropic viruses) was “substantially inhibited”. For the same compound, the inhibition of entry (dual-tropic viruses) was “partially inhibited”, the “suppression of CXCR4-tropic virus” value ([3]; populations comprising 100% dual viruses (homogeneous) at baseline) was “not suppressed” and the “suppression of CXCR4-tropic virus” value ([3]; populations containing mixtures of CCR5-tropic and CXCR4-tropic or dual-tropic viruses at baseline) was “experienced suppression”. The “entry into cells using the CXCR4 co-receptor” value [3, 4] was “efficiently blocked” and the “entry using the CCR5 co-receptor” value [3, 4] was “unaffected”.
